Laboratory results published in US20250296910A1, “BENZAMIDE ENAMINONE DERIVATIVES AND METHODS OF USE THEREOF” (University of Maryland, Eastern Shore, priority 2022, published 2025).

Legend:
6 Hz 44 mA animal model = experiment: 6 Hz 44 mA psychomotor seizure test (ETSP anticonvulsant screening); format: in vivo, Carworth Farms no. 1 (CF1) mice; settings: 300 mg/kg, ip, mice
Description: (§1) Initial evaluation for anticonvulsant activity was done by the Epilepsy Therapy Screening Program Branch, National Institute of Neurological Disorders and Stroke. Phase I evaluation included three tests: maximal electroshock (MES), 6 Hz, and rotarod test for neurological toxicity (Tox). The studies were done in normal adult male Carworth Farms no. 1 (CF1) mice using four or more mice pre-test. Intraperitoneal (ip) administration of the test compounds was carried out as a suspension in 0.5% methylcellulose. The compounds were tested at doses ranging from 30 mg/kg to 300 mg/kg. The animals were pretreated with the test compound at time intervals of 0.5 h and 2 h. The rotarod neurologic toxicity test was completed at each dose and time point. The MES test is a high frequency (60 Hz), short duration ([…]) stimulus delivered through corneal electrodes in normal rodents while the 6 Hz 44 mA psychomotor test is a long duration (3 s) and low frequency (6 Hz). Compounds active in the MES Identification Phase tests are screened for their ability to block seizures induced in the 6 Hz psychomotor focal seizures animal model of epilepsy. The compounds effective in the 6-Hz model during the Identification phase become candidates for advanced screening in the Differentiation Phase.

[1] = system: maximal electroshock (MES) model; experiment: maximal electroshock (MES) test (ETSP anticonvulsant screening); format: in vivo, Carworth Farms no. 1 (CF1) mice; settings: ip, mice; for animals protected in MES model: 300 mg/kg
Description: as §1

O=C1C=C(NC(=O)c2ccc(C(F)(F)F)cc2)CC(C(F)(F)F)C1 (stereo not shown) [Compound 7, N-(3-oxo-5-(trifluoromethyl)cyclohex-1-en-1-yl)-4 (trifluoro-methyl)-benzamide]
25%: protection in 6 Hz 44 mA model (6 Hz 44 mA animal model) | protection in MES model ([1]; 100 mg/kg, after 2 h) | animals protected in MES model ([1]; 0.5 h) | animals protected in MES model ([1]; 2 h)
